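GI50 is the concentration that inhibits growth by half. TGI marks complete inhibition of growth.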
Assays:
Test in all cases: NCI tumour cell line growth inhibition, 384-well format
HL-60(TB) leukemia = system: HL-60(TB) leukemia
MCF7 breast = system: MCF7 breast
M14 melanoma = system: M14 melanoma
TK-10 renal = system: TK-10 renal
RXF 393 renal = system: RXF 393 renal
SK-MEL-28 melanoma = system: SK-MEL-28 melanoma
NCI-H460 NSCLC = system: NCI-H460 NSCLC
MDA-MB-435 melanoma = system: MDA-MB-435 melanoma
OVCAR-4 ovarian = system: OVCAR-4 ovarian
NCI/ADR-RES ovarian = system: NCI/ADR-RES ovarian
EKVX NSCLC = system: EKVX NSCLC
MDA-MB-468 breast = system: MDA-MB-468 breast
NCI-H23 lung = system: NCI-H23 lung
PC-3 prostate = system: PC-3 prostate
SNB-19 CNS = system: SNB-19 CNS
HOP-92 NSCLC = system: HOP-92 NSCLC
UO-31 renal = system: UO-31 renal
MDA-MB-231 breast = system: MDA-MB-231 breast
HOP-62 NSCLC = system: HOP-62 NSCLC
UACC-257 melanoma = system: UACC-257 melanoma
NCI-H522 lung = system: NCI-H522 lung
HCC-2998 colon = system: HCC-2998 colon
UACC-62 melanoma = system: UACC-62 melanoma
HCT-116 colon = system: HCT-116 colon
KM12 colon = system: KM12 colon
SF-295 CNS = system: SF-295 CNS
SK-MEL-2 melanoma = system: SK-MEL-2 melanoma
COLO 205 colon = system: COLO 205 colon
RPMI-8226 leukemia = system: RPMI-8226 leukemia
OVCAR-5 ovarian = system: OVCAR-5 ovarian
MALME-3M melanoma = system: MALME-3M melanoma
BT-549 breast = system: BT-549 breast
MOLT-4 leukemia = system: MOLT-4 leukemia
ACHN renal = system: ACHN renal
NCI-H226 lung = system: NCI-H226 lung
OVCAR-3 ovarian = system: OVCAR-3 ovarian
786-0 renal = system: 786-0 renal
DU-145 prostate = system: DU-145 prostate
NCI-H322M lung = system: NCI-H322M lung
A549 NSCLC = system: A549 NSCLC
SR leukemia = system: SR leukemia
SF-268 CNS = system: SF-268 CNS
SN12C renal = system: SN12C renal
SF-539 CNS = system: SF-539 CNS
U251 glioblastoma = system: U251 glioblastoma
LOX IMVI melanoma = system: LOX IMVI melanoma
SK-MEL-5 melanoma = system: SK-MEL-5 melanoma
HS 578T breast = system: HS 578T breast
K-562 leukemia = system: K-562 leukemia
SK-OV-3 ovarian = system: SK-OV-3 ovarian
SNB-75 CNS = system: SNB-75 CNS
CCRF-CEM leukemia = system: CCRF-CEM leukemia
A498 renal = system: A498 renal
HT29 colon = system: HT29 colon
CAKI-1 renal = system: CAKI-1 renal
HCT-15 colon = system: HCT-15 colon
SW-620 colon = system: SW-620 colon
IGROV1 ovarian = system: IGROV1 ovarian
T-47D breast = system: T-47D breast

SMILES: CCCCc1nc2cc(/C=C/C(=O)NO)ccc2n1CCN(CC)CC
- GI50 (HL-60(TB) leukemia): 144 nM
- TGI (HL-60(TB) leukemia): 280 nM
- GI50 (MCF7 breast): 185 nM
- TGI (MCF7 breast): 1130 nM
- GI50 (M14 melanoma): 358 nM
- TGI (M14 melanoma): 1710 nM
- GI50 (TK-10 renal): 258 nM
- TGI (TK-10 renal): 948 nM
- GI50 (RXF 393 renal): < 10 nM
- TGI (RXF 393 renal): 237 nM
- GI50 (SK-MEL-28 melanoma): 179 nM
- TGI (SK-MEL-28 melanoma): 465 nM
- GI50 (NCI-H460 NSCLC): 235 nM
- TGI (NCI-H460 NSCLC): 1320 nM
- GI50 (MDA-MB-435 melanoma): 226 nM
- TGI (MDA-MB-435 melanoma): 616 nM
- GI50 (OVCAR-4 ovarian): 392 nM
- TGI (OVCAR-4 ovarian): 1950 nM
- GI50 (NCI/ADR-RES ovarian): 489 nM
- TGI (NCI/ADR-RES ovarian): 2330 nM
- GI50 (EKVX NSCLC): 649 nM
- TGI (EKVX NSCLC): 4320 nM
- GI50 (MDA-MB-468 breast): 134 nM
- TGI (MDA-MB-468 breast): 356 nM
- GI50 (NCI-H23 lung): 296 nM
- TGI (NCI-H23 lung): 1440 nM
- GI50 (PC-3 prostate): 185 nM
- TGI (PC-3 prostate): 689 nM
- GI50 (SNB-19 CNS): 511 nM
- TGI (SNB-19 CNS): 1980 nM
- GI50 (HOP-92 NSCLC): 176 nM
- TGI (HOP-92 NSCLC): 518 nM
- GI50 (UO-31 renal): 82.9 nM
- TGI (UO-31 renal): 1520 nM
- GI50 (MDA-MB-231 breast): 187 nM
- TGI (MDA-MB-231 breast): 613 nM
- GI50 (HOP-62 NSCLC): 250 nM
- TGI (HOP-62 NSCLC): 1640 nM
- GI50 (UACC-257 melanoma): 178 nM
- TGI (UACC-257 melanoma): 561 nM
- GI50 (NCI-H522 lung): 34.3 nM
- TGI (NCI-H522 lung): 247 nM
- GI50 (HCC-2998 colon): 106 nM
- TGI (HCC-2998 colon): 414 nM
- GI50 (UACC-62 melanoma): 83.4 nM
- TGI (UACC-62 melanoma): 235 nM
- GI50 (HCT-116 colon): 125 nM
- TGI (HCT-116 colon): 377 nM
- GI50 (KM12 colon): 280 nM
- TGI (KM12 colon): 1420 nM
- GI50 (SF-295 CNS): 186 nM
- TGI (SF-295 CNS): 397 nM
- GI50 (SK-MEL-2 melanoma): 169 nM
- TGI (SK-MEL-2 melanoma): 339 nM
- GI50 (COLO 205 colon): 178 nM
- TGI (COLO 205 colon): 419 nM
- GI50 (RPMI-8226 leukemia): < 10 nM
- TGI (RPMI-8226 leukemia): 17 nM
- GI50 (OVCAR-5 ovarian): 119 nM
- TGI (OVCAR-5 ovarian): 484 nM
- GI50 (MALME-3M melanoma): 130 nM
- TGI (MALME-3M melanoma): 402 nM
- GI50 (BT-549 breast): 230 nM
- TGI (BT-549 breast): 1160 nM
- GI50 (MOLT-4 leukemia): 30.9 nM
- TGI (MOLT-4 leukemia): 197 nM
- GI50 (ACHN renal): 221 nM
- TGI (ACHN renal): 955 nM
- GI50 (NCI-H226 lung): 697 nM
- TGI (NCI-H226 lung): 2100 nM
- GI50 (OVCAR-3 ovarian): 181 nM
- TGI (OVCAR-3 ovarian): 974 nM
- GI50 ([…]-0 renal): 317 nM
- TGI (786-0 renal): 2000 nM
- GI50 (DU-145 prostate): 120 nM
- TGI (DU-145 prostate): 375 nM
- GI50 (NCI-H322M lung): 206 nM
- TGI (NCI-H322M lung): 1140 nM
- GI50 (A549 NSCLC): 321 nM
- TGI (A549 NSCLC): 1270 nM
- GI50 (SR leukemia): < 10 nM
- TGI (SR leukemia): 107 nM
- GI50 (SF-268 CNS): 174 nM
- TGI (SF-268 CNS): 602 nM
- GI50 (SN12C renal): 286 nM
- TGI (SN12C renal): 1290 nM
- GI50 (SF-539 CNS): 415 nM
- TGI (SF-539 CNS): 2480 nM
- GI50 (U251 glioblastoma): 174 nM
- TGI (U251 glioblastoma): 503 nM
- GI50 (LOX IMVI melanoma): 203 nM
- TGI (LOX IMVI melanoma): 588 nM
- GI50 (SK-MEL-5 melanoma): 129 nM
- TGI (SK-MEL-5 melanoma): 290 nM
- GI50 (HS 578T breast): 125 nM
- TGI (HS 578T breast): 317 nM
- GI50 (K-562 leukemia): 17.5 nM
- TGI (K-562 leukemia): 205 nM
- GI50 (SK-OV-3 ovarian): 239 nM
- TGI (SK-OV-3 ovarian): 911 nM
- GI50 (SNB-75 CNS): 119 nM
- TGI (SNB-75 CNS): 1630 nM
- GI50 (CCRF-CEM leukemia): 62.3 nM
- TGI (CCRF-CEM leukemia): 206 nM
- GI50 (A498 renal): 298 nM
- TGI (A498 renal): 1070 nM
- GI50 (HT29 colon): 203 nM
- TGI (HT29 colon): 809 nM
- GI50 (CAKI-1 renal): 206 nM
- TGI (CAKI-1 renal): 709 nM
- GI50 (HCT-15 colon): 483 nM
- TGI (HCT-15 colon): 2110 nM
- GI50 (SW-620 colon): 166 nM
- TGI (SW-620 colon): 334 nM
- GI50 (IGROV1 ovarian): 119 nM
- TGI (IGROV1 ovarian): 539 nM
- GI50 (T-47D breast): 136 nM
- TGI (T-47D breast): 310 nM

From PubChem BioAssay (NCI)
